{
  "source": "patent US12263198B1",
  "about": "“Compositions and methods of improving ruminant performance” (Ralco Nutrition, Inc., priority 2021, dated 2025)",
  "test_system": "rumen fluid",
  "experiment": "ANKOM artificial rumen system, dry matter digestibility of hay",
  "assay_type": "cell-based, steers",
  "conditions": "24 hours",
  "description": "This study was conducted to evaluate the feed additive composition in an ANKOM artificial rumen system to compare digestibility of a feed additive of a cobalt lactate/yeast blend, relative to a feed additive of only cobalt lactate and a feed additive of only yeast. In each run, two cannulated steers were used to collect rumen fluid from the two steers at the Ralco Beef Research Farm in Marshall, MN. The rumen fluid was mixed with a buffer solution along with a different feed additive composition in each of three jars and a fourth jar having a control with no treatment. Eight runs were performed at differing amounts of cobalt lactate, yeast, and blends of cobalt lactate and yeast, as shown in each of the tables below. The cobalt lactate used in Runs 1-8 was Microbial Catalyst® from Ralco. The yeast used in Runs 1-8 was Emprove MX from Emmert.\nDacron bags with hay (Barley straw, DM 94.2, CP 5.4, ADF 54.15, NDF 75.6, Neg/cwt 17.7 and Nem/cwt 42.5 respectively) samples were then added to each jar, the jar was purged with CO2 and incubated for 24 hours at 39.5 degrees C. At the end of the 24 hours, the bags were removed, washed with clear tap water and run through the ANKOM fiber analyzer. At that point, the bags were dried and re-weighed, and the weight entered into formulas to give a dry matter digestibility value.\nIn this study a similar analysis was performed as in Example 5. In this example, Formulation A (used in Runs 6-8) was compared to Product 1 (Diamond V XPC®) and Product 2 (Amaferm® from BioZyme). The protocol used in this example is the same as that provided above for Example 5.",
  "note": "Marks after values point to notes of the source that are not given here.",
  "data": [
    {"smiles": "CC(O)C(=O)[O-].CC(O)C(=O)[O-].[Co+2]", "note": "(centres unmarked) [cobalt lactate]", "values": [
      {"measurement": "DMD", "setting": "Run 1, 3.0 g", "value": "54.37^b"},
      {"measurement": "DMD", "setting": "Run 2, 6.0 g", "value": "57.04^b"},
      {"measurement": "DMD", "setting": "Run 3, 3.0 g", "value": "61.87^b"},
      {"measurement": "DMD", "setting": "Run 4, 3.0 g", "value": "61.83^c"},
      {"measurement": "DMD", "setting": "Run 5, 3.0 g", "value": "64.59^c"},
      {"measurement": "DMD", "setting": "Run 6, 3.0 g", "value": "62.41^c"},
      {"measurement": "DMD", "setting": "Run 7, 3.0 g", "value": "62.17^b"},
      {"measurement": "DMD", "setting": "Run 8, 3.0 g", "value": "66.71^c"}
    ]}
  ]
}
